Where “and” joins values, the source holds several entries; their conditions need not be identical. Identical values can stand only once. Like-named read-outs stand apart in the source and are kept apart here.
Columns and labels:
[1] = tested on: rat tibialis electrically-induced twitches; experiment: Neuromuscular blocking activity in rats (sciatic nerve-tibialis twitch); format: in vivo; details: for Time for 100% Reversal / Time of onset of Reversal: after physostigmine; for ED50 (mmole/kg i.p.): dose producing 50% reduction of the rat tibialis twitch; for Duration of the Block / Time of 50% Block / Time of 90% Block / Time of onset of Block: rat tibialis twitches; for Effect of Physostigmine: reversal of block by physostigmine, single bolus
4-day old chicks = experiment: Neuromuscular blocking activity in chicks (head drop, type of paralysis); format: in vivo, chick
Protocol: Adult male Wistar rats (250 g) and 4-day old chicks (50 g) were used to conduct the neuromuscular blocking activity evaluation. They were housed in cages and kept at a temperature of 20±2° C. and a relative humidity of 55±5% with a light-dark cycle of 12 h. The animals were provided with Purina rodent's chow pellets supplied by Grain silos and Flour Mills Organization, Riyadh, Saudi Arabia and had both food and water ad libitum. The chicks were bought from the local market in Riyadh. Male Wistar rats (250 g) were randomly divided into various groups (N=4-8 animals). The animals were prepared following modifications of the reported method (Henning, R. Br. J. Pharmacol. 1993, 108, 717-720; Thesleff, S. et al, J. Pharmacol. Expt. Ther. 1954, 111, 99-118). Test drugs, standards or vehicles were administered intraperitoneal dissolved in dimethyl sulfoxide, or water as appropriate in various doses 1-100 mg/kg. In all experiments a control group was included and received intraperitoneal injections of the test compounds' vehicle. […] Also the dose that produced 90% of twitches depression was calculated. The response of the muscle to titanic stimulation was tested before administration of any drug and following 90% inhibition of the twitches.
Intraperitoneal administration of compounds of the formula 1 in single doses ranged from of 0.15-0.3 mmoles/kg, induced flaccid paralysis of the chicks within 1-15 minutes. The paralysis started with head movement and drop; then complete flaccid paralysis occurred. The onset of head drops were ranged from 15 sec-11 minutes whereas the flaccid paralysis ranged from 1-15 minutes following administration. Atracurium and Succinylcholine were used as positive controls. The mechanism of action of compounds of the formula 1 was similar but with more rapid onset of action than that of Atracurium; and almost similar to that of Succinylcholine. Representative example is shown in Example 4.
The effects of GS-53 and the standard drugs Succinylcholine and Atracurium were administered to 4-day old chicks to confirm the mode of the neuromuscular blockade (Buttle, G. et al, J. Pharm. Pharmacol. 1949, 1, 991-992; Thesleff, S. et al, J. Pharmacol. Expt. Ther. 1954, 111, 99-118; ELTahir, K. Guide to Drug Discovery, 2008, Riyadh, KSA). […] Intraperitoneal administration of GS-53 in single dose of 0.15 mmoles/kg, induced flaccid paralysis of the chicks within one minute. The paralysis started with head movement and drop; then complete flaccid paralysis occurred. The onset of head drop was 15 sec whereas the flaccid paralysis was one minute following administration. Atracurium and Succinylcholine were used as positive controls. The mechanism of action GS-53 seemed to be similar but with more rapid onset of action than that of Atracurium; and almost similar to that of Succinylcholine (Table 2).

[2] = Determination of the lethal dose (LD50); details: male, mouse, in vivo, ip, male mice, intraperitoneal
Protocol: The LD50 values of compounds of formula 1 were performed. Compounds were given intraperitoneally in doses ranging from 0.1-5 mmole/kg. […] All behavioral changes and death during the observation periods were recorded. The percentage of death at each dose level was then calculated, and the LD50 values were obtained (Ghosh, M., Fundamentals of Experimental Pharmacology, Scientific Book Agency, Calcutta. 1984, pp 153-158, 187-189). The Therapeutic Index of each compound was calculated following the determination of the effective neuromuscular blocking dose. Representative example is shown in Example 5.
Male mice were divided into various groups and GS-53 was administered in various doses ranging from 0.1-5 mmole/kg, intraperitoneal. […] All behavioral changes and death during the observation periods were recorded.

[3] = literature classification, cited from earlier work; for Onset of action: following bolus i.v. administration
[4] = single dose of 0.15 mmoles/kg i.p.

Compound | Time for 100% Reversal [1] | Time of onset of Reversal [1] | ED50 (mmole/kg i.p.) ([1]; i.p.) | Duration of the Block ([1]; i.p.) | Time of 50% Block ([1]; i.p.) | Time of 90% Block ([1]; i.p.) | Time of onset of Block ([1]; i.p.) | Effect of Physostigmine [1] | ED50 (mmole/kg i.p.) (4-day old chicks; i.p.) | Mechanism of action (4-day old chicks; i.p.) | Onset of head drop (4-day old chicks; i.p.) | Onset of muscle relaxation (4-day old chicks; i.p.) | Type of neuromuscular paralysis (4-day old chicks; i.p.) | Onset of action [3] | Duration [3] | further results
O=C1CCCN2N=C(c3ccc(Br)cc3)SC2=N1 [GS-53, (E)-2-(4-bromophenyl)-6,7-dihydro-[1,3,4]thiadiazolo[3,2-a][1,3]diazepin-8(5H)-one] | 6 ± 1.2 min | 1.0 min | 0.15 mmol/kg | 70 ± 12 min | 7 ± 0.6 min | 10 ± 3 min | 3 ± 0.9 min | completely reversed and 100% Reversal | 0.15 mmol/kg | Competitive | 0.25 ± 0.1 min | 1 ± 0.08 min | Flaccid | – | – | ED50 (mmole/kg i.p.), value in brackets in mg ([1]; i.p., rat tibialis twitch): 48.6 mg; Duration of action relative to Atracurium ([1]; rat, ratio of durations of block): 2.3 times; ED50 (mmole/kg i.p.), value in brackets in mg (4-day old chicks; i.p.): 48.6 mg/kg; Onset of flaccid paralysis (4-day old chicks; [4]): one; Onset of head drop (4-day old chicks; [4]): 0.25 min; LD50 at 72 h ([2]; observation 72 hours, read-out: LD50): 195 mg/kg; LD50 at 72 h ([2]; read-out: LD50 95% confidence limits): 185 to 205 mg/kg
C[N+](C)(C)CCOC(=O)CCC(=O)OCC[N+](C)(C)C [Succinylcholine] | – | – | 0.03 mmol/kg | 20 ± 1.8 min | 3 ± 0.1 min | 5 ± 0.2 min | 2 ± 0.1 min | No Reversal | 0.03 mmol/kg | Depolarizing | – | 0.5 ± 0.02 min | Spastic | within a minute | 5 min | –
COc1cc2c(cc1OC)[C@H](c1cc(OC)c(OC)c(OC)c1)[N@@+](C)(CCCOC(=O)/C=C(\Cl)C(=O)OCCC[N@+]1(C)CCc3cc(OC)c(OC)cc3[C@H]1Cc1cc(OC)c(OC)c(OC)c1)CC2 [Gantacurium] | – | – | – | – | – | – | – | – | – | – | – | – | – | within a minute | 5 min | –
COc1ccc(CC2c3cc(OC)c(OC)cc3CC[N+]2(C)CCC(=O)OCCCCCOC(=O)CC[N+]2(C)CCc3cc(OC)c(OC)cc3C2Cc2ccc(OC)c(OC)c2)cc1OC (centres unmarked) [Atracurium] | 3 ± 0.4 min | 2.0 min | 0.016 mmol/kg | 30 ± 6 min | 8 ± 0.2 min | 12 ± 1.3 min | 5 ± 0.8 min | 100% Reversal | 0.016 mmol/kg | Competitive | 5 ± 0.8 min | 10 ± 0.8 min | Flaccid | – | – | –
